Experimental findings from the OligoGym collection are described below.

Values joined by “and” are separate entries in the source; they are usually repeats but may differ in a detail not shown here. Equal entries are not always repeated. After the bases stand the sugars from the 5' end (letter, count) and the backbone: PS all phosphorothioate, else s phosphorothioate and o phosphodiester by linkage. Methylation of C is not given here. e = 2'-O-(2-methoxyethyl) (MOE); k = constrained ethyl (cEt); d = 2'-deoxy (DNA)

The target in this data set is SOD1. Particulars: ASO.

“ATTACAGTGTTTAATGT (sugars e3 k2 d7 k2 e3, PS)”: the target mRNA inhibition (HepG2, 3 µM) is 24%.
Same read-out and setting: with “CATCTGCTTTTTCATGGACC (sugars e5 d10 e5, PS)” the figure was 46%; with “TCATTGAAACAGACATT (sugars e3 k2 d7 k2 e3, PS)”, 10%.
Regarding “ACAGCTAGCAGGATAAC (sugars e2 k2 d9 k2 e2, PS)”, the target mRNA inhibition by setting is: (HepG2, 0.1875 µM) 29%; (HepG2, 0.75 µM) 71%; (HepG2, 3 µM) 89%; (HepG2, 4 µM) 83%; (HepG2, 12 µM) 97%.
As for “TCTCTTCATCCTTTGGC (sugars e3 k2 d7 k2 e3, PS)”, under “HepG2, 3 µM”, the target mRNA inhibition amounted to 14%.
With “AGGATACATTTCTACAGCTA (sugars e5 d10 e5, PS)”, the target mRNA inhibition was 29% (HepG2, 0.1875 µM); 47% (HepG2, 0.75 µM); 82% (HepG2, 3 µM); 56% (HepG2, 4 µM); 79% (HepG2, 5 µM); 80% and 96% (HepG2, 12 µM).
Take “GGATACATTTCTACAGC (sugars e4 d9 k2 e2, linkages s1 o3 s9 o1 s2)”: the target mRNA inhibition (A431, 0.062 µM) worked out at 0%; the target mRNA inhibition (A431, 0.185 µM) turned out to be 1%; the target mRNA inhibition (A431, 0.556 µM) amounted to 13%; the target mRNA inhibition (A431, 1.667 µM) amounted to 28%; the target mRNA inhibition (A431, 5 µM) is 42%; the target mRNA inhibition (A431, 15 µM) was determined as 55%. This sequence also displayed a target mRNA inhibition (SH-SY5Y, 0.062 µM) of 10%; a target mRNA inhibition (SH-SY5Y, 0.185 µM) of 3%; a target mRNA inhibition (SH-SY5Y, 0.556 µM) of 23%; a target mRNA inhibition (SH-SY5Y, 1.667 µM) of 35%; a target mRNA inhibition (SH-SY5Y, 5 µM) of 77%; a target mRNA inhibition (SH-SY5Y, 15 µM) of 78%.
Under “HepG2, 3 µM”, “ATGCTTCCCCACACCTT (sugars e3 k2 d7 k2 e3, PS)” gave a target mRNA inhibition of 41%.
“TCCAAGGGAATGTTTAT (sugars e2 k2 d9 k2 e2, PS)” gave a target mRNA inhibition (HepG2, 4 µM) of 57%.
Sequence “CTGGCAAAATACAGGTC (sugars e3 k2 d7 k2 e3, PS)” gave a target mRNA inhibition (HepG2, 3 µM) of 18%.
Still for that read-out and setting: next, “CATGCAGGCCTTCAGTC (sugars e3 k2 d7 k2 e3, PS)”: 41%.
The same measure, in the same setting: next, “GAGTTTTATAAAACTAT (sugars e3 k2 d7 k2 e3, PS)”: 6%.
Consider “AATAGCCTCATAATAAG (sugars e2 k2 d8 k2 e3, PS)”, for which the target mRNA inhibition (HepG2, 5 µM) came out at 20%.
In turn, “CAGACTACATCCAAGGG (sugars e3 k2 d7 k2 e3, PS)” gave a target mRNA inhibition (HepG2, 3 µM) of 53%.
With “GTTTAATGTTTATCAG (sugars ekddddddddekekee, linkages s1 o1 s8 o3 s2)”, the target mRNA inhibition amounted to 2% (A431, 0.12 µM); 19% (A431, 0.6 µM); 33% (A431, 3 µM); 62% (A431, 15 µM); 44% (HepG2, 0.222 µM); 63% (HepG2, 0.667 µM). For the same sequence, the target mRNA inhibition (HepG2, 2 µM) turned out to be 82% and the target mRNA inhibition (HepG2, 6 µM) worked out at 94%.
For “TCCAAGTGATCATAAAT (sugars e2 k2 d9 k2 e2, PS)”, the target mRNA inhibition (HepG2, 5 µM) was determined as 39%.
Under “HepG2, 3 µM”, “AACTATACAAATCTTCC (sugars e3 k2 d7 k2 e3, PS)” registered a target mRNA inhibition of 28%.
As for “TTCTCACTACAGGTACT (sugars e2 k2 d9 k2 e2, PS)”, for the setting “HepG2, 5 µM”, the target mRNA inhibition was determined as 37%.
Regarding “AGTGTTTAATGTTTATC (sugars ekekddddddddkekee, linkages s1 o2 s9 o2 s2)”, the target mRNA inhibition runs as follows: (A431, 0.062 µM) 52%; (A431, 0.185 µM) 68%; (A431, 0.556 µM) 79%; (A431, 1.667 µM) 88%; (A431, 5 µM) 89%; (A431, 15 µM) 91%. Moreover, the target mRNA inhibition by setting is: (SH-SY5Y, 0.062 µM) 38%; (SH-SY5Y, 0.185 µM) 49%; (SH-SY5Y, 0.556 µM) 61%; (SH-SY5Y, 1.667 µM) 83%; (SH-SY5Y, 5 µM) 81%; (SH-SY5Y, 15 µM) 84%.
For the sequence “TCAGGATACATTTCTACAGC (sugars e5 d10 e5, PS)”, the target mRNA inhibition was 13% (HepG2, 0.1875 µM); 42% (HepG2, 0.75 µM); 75% (HepG2, 3 µM); 70% (HepG2, 5 µM); 92% (HepG2, 12 µM).
Take “TTAATGTTTATCAGGA (sugars ekddddddddekekee, linkages s1 o1 s8 o3 s2)”: the target mRNA inhibition by setting is: (A431, 0.12 µM) 0%; (A431, 0.6 µM) 7%; (A431, 3 µM) 21%; (A431, 15 µM) 46%; (HepG2, 0.222 µM) 52%; (HepG2, 0.667 µM) 73%. The target mRNA inhibition is, setting by setting: (HepG2, 2 µM) 84%; (HepG2, 6 µM) 93%.
“CTGTGATTTAAGTCTGG (sugars e2 k2 d9 k2 e2, PS)” gave a target mRNA inhibition (HepG2, 5 µM) of 61%.
With “GGTCCTGGTTCCGAGGACTG (sugars e5 d10 e5, PS)”, the target mRNA inhibition (HepG2, 4 µM) is 14%.
Consider “TATTCACAGGCTTGAAT (sugars e2 k2 d9 k2 e2, PS)”, for which the target mRNA inhibition (HepG2, 5 µM) stood at 11%.
The same measure, in the same setting: next, “TACCCATCTGTGATTTA (sugars e2 k2 d8 k2 e3, PS)”: 29%.
“ATTACACCACAAGCCAA (sugars e2 k2 d8 k2 e3, PS)” registered a target mRNA inhibition (HepG2, 4 µM) of 46%.
For the setting “HepG2, 3 µM”, “CCCACACCTTCACTGGT (sugars e3 k2 d7 k2 e3, PS)” had a target mRNA inhibition of 18%.
Regarding “CCGTCTCCGCGACTACTTTA (sugars e5 d10 e5, PS)”, the target mRNA inhibition (HepG2, 4 µM) was found to be 20%.
Take “GTTTAATGTTTATCAGG (sugars e2 k2 d9 k2 e2, PS)”: the target mRNA inhibition was found to be 67% (HepG2, 0.1875 µM); 84% (HepG2, 0.75 µM); 94% (HepG2, 3 µM); 92% (HepG2, 5 µM); 96% (HepG2, 12 µM).
Regarding “CATGCAGGCCTTCAGTCAGT (sugars e5 d10 e5, PS)”, under “HepG2, 5 µM”, the target mRNA inhibition was 37% and 33%.
On the same count and under the same terms, with “TTTATTCACAGGCTTGA (sugars e2 k2 d8 k2 e3, PS)” the figure was 44%.
Take “AATGTTTATTGGGCGAT (sugars e3 k2 d7 k2 e3, PS)”: the target mRNA inhibition (HepG2, 3 µM) turned out to be 30%.
In turn, “GGCTTGAATGACAAAGA (sugars e2 k2 d9 k2 e2, PS)” registered a target mRNA inhibition (HepG2, 5 µM) of 44%.
Still for that read-out and setting: next, “GACAAGTTTAATACCCA (sugars e2 k2 d8 k2 e3, PS)”: 54%; “TACAGGTCATTGAAACA (sugars e2 k2 d8 k2 e3, PS)”: 26%; “AATACCCATCTGTGATTTAA (sugars e5 d10 e5, PS)”: 0%.
As for “TTAATACCCATCTGTGA (sugars e3 k2 d7 k2 e3, PS)”, the target mRNA inhibition (HepG2, 3 µM) turned out to be 2%.
Under “HepG2, 3 µM”, “CAAAATACAGGTCATTG (sugars e3 k2 d7 k2 e3, PS)” came in with a target mRNA inhibition of 23%.
As for “ATTTCCACCTTTGCCCAAGT (sugars e5 d10 e5, PS)”, the target mRNA inhibition worked out at 56% (HepG2, 4 µM) and 84% (HepG2, 12 µM).
Take “CCCTTCAGCACGCACACGGC (sugars e5 d10 e5, PS)”: the target mRNA inhibition (HepG2, 0.1875 µM) is 17%; the target mRNA inhibition (HepG2, 0.75 µM) came out at 26%; the target mRNA inhibition (HepG2, 3 µM) worked out at 59%; the target mRNA inhibition (HepG2, 4 µM) amounted to 37%; the target mRNA inhibition (HepG2, 12 µM) was found to be 83%.
Consider “CAGACTACATCCAAGGG (sugars e2 k2 d9 k2 e2, PS)”, for which the target mRNA inhibition is 28% (HepG2, 0.1875 µM); 55% (HepG2, 0.75 µM); 74% (HepG2, 3 µM); 78% (HepG2, 4 µM); 91% (HepG2, 12 µM).
Where the note is “HepG2, 4 µM”, “TGTTTATCAGGATACAT (sugars e2 k2 d8 k2 e3, PS)” yielded a target mRNA inhibition of 70%.
Where the note is “HepG2, 3 µM”, “TACTTTCCTTCTGCTCG (sugars e3 k2 d7 k2 e3, PS)” gave a target mRNA inhibition of 14%.
“CAGACTACATCCAAGGG (sugars e2 k2 d8 k2 e3, PS)”: the target mRNA inhibition is, setting by setting: (HepG2, 0.1875 µM) 25%; (HepG2, 0.75 µM) 60%; (HepG2, 3 µM) 84%; (HepG2, 4 µM) 81%; (HepG2, 12 µM) 91%.
Consider “GGATAACAGATGAGTTAAGG (sugars e5 d10 e5, PS)”, for which the target mRNA inhibition (HepG2, 5 µM) worked out at 48%.
Same read-out and setting: with “AGCAACTCTGAAAAAGTCAC (sugars e5 d10 e5, PS)” the figure was 14%.
As to “TTTTTTAGTTTGAATTTGGA (sugars e5 d10 e5, PS)”, where the note is “HepG2, 5 µM”, the target mRNA inhibition turned out to be 0%.
Regarding “AGTGAGGACCTGCACTG (sugars e3 k2 d7 k2 e3, PS)”, for the setting “HepG2, 3 µM”, the target mRNA inhibition worked out at 21%.
On to “ATCTTCAATAGACACATCGG (sugars e5 d10 e5, PS)”, for which the target mRNA inhibition (HepG2, 5 µM) is 16% and 0%.
Under “HepG2, 5 µM”, “CCATACAGGGTTTTTAT (sugars e2 k2 d9 k2 e2, PS)” registered a target mRNA inhibition of 34%.
Consider “GCAGGATAACAGATGAG (sugars e2 k2 d9 k2 e2, PS)”, for which the target mRNA inhibition reads like this: (HepG2, 0.1875 µM) 31%; (HepG2, 0.75 µM) 75%; (HepG2, 3 µM) 90%; (HepG2, 4 µM) 86% and 83%; (HepG2, 12 µM) 89% and 97%.
“TGCCATACAGGGTTTTT (sugars e2 k2 d9 k2 e2, PS)” came in with a target mRNA inhibition (HepG2, 5 µM) of 22%.
In the case of “GCAGGATAACAGATGAG (sugars e2 k2 d8 k2 e3, PS)”, the target mRNA inhibition runs as follows: (HepG2, 0.1875 µM) 26%; (HepG2, 0.75 µM) 67%; (HepG2, 3 µM) 84%; (HepG2, 4 µM) 79%; (HepG2, 12 µM) 93%.
Under “HepG2, 5 µM”, “CCACCAGTGTGCGGCCAATG (sugars e5 d10 e5, PS)” returned a target mRNA inhibition of 22%.
On the same count and under the same terms, next, “TGACAAGTTTAATACCC (sugars e2 k2 d8 k2 e3, PS)”: 43%.
